Assay results published in article PMC10279719 (Nature Communications, 2023).

What was measured:
CrkII^SH2 = molecular target: T1, CrkII^SH2 (Homo sapiens, UniProt P46108); assay: SPR, CrkII SH2 binding to immobilised PEAK proteins; conditions: interactor as analyte over biotinylated PEAK protein (biotin CAPture); Biacore 8K+, HBS-TP with 500 mM NaCl, 20 °C; steady-state fit; mean ± S.E.M. (N = 3)
T1 construct: CrkII^SH2; UniProt P46108-1, residues 6–120; 8-His tag with TEV protease cleavage site (N); made in house; host or cells: E. coli C41 (DE3)
Procedure: (§1) SPR binding studies of PEAK PRM peptides to CrkII^NSH3 were performed using a Biacore S200 Instrument (Cytiva). Purified CrkII^NSH3 was diluted to 5 µg ml^−1 in 10 mM sodium acetate pH 4.0 and amine coupled at 25 °C to a Series S CM5 sensor chip, in HBS-N running buffer (20 mM HEPES pH 7.4, 150 mM NaCl) to a final immobilization level of 1100–1400 response units (RU), followed by surface deactivation using 1 M ethanolamine. A blank activation/deactivation was used for the reference surface. Peptide binding studies were performed at 20 °C in HBS-TP running buffer (20 mM HEPES pH 7.4, 150 mM NaCl, 1 mM TCEP, 0.005% (v/v) Tween-P20). […] Peptide stocks were further diluted to in running buffer to 10 or 20 µM and prepared as a 11-point concentration series (2-fold serial dilution, […] for PEAK PRM peptides, or 20 µM–20 nM for PEAK tandem motif peptides). Samples were injected in a multi-cycle run (flow rate 30 µl min^−1, contact time of 60 s, dissociation 120 s) without regeneration. Sensorgrams were double referenced, and steady-state binding data fitted using a 1:1 binding model using Biacore S200 Evaluation Software (Cytiva, v. 1.1).
(§2) SPR binding studies of PEAK proteins to full length CrkII/Grb2 and sub-domains were performed using a Biacore 8K+ Instrument (Cytiva) and analyzed using Biacore Insight Evaluation Software (v. 3.0.12.15655). […] Binding studies and steady-state data analysis were performed as described for CrkII^NSH3 with the inclusion of an additional surface regeneration step (60 s injection of 1 M NaCl) between cycles.

14-3-3ɣ = assay: SPR, 14-3-3ɣ binding to immobilised PEAK proteins; set-up: species or system human; conditions: 14-3-3ɣ analyte 0.46–1000 nM, multi-cycle, over immobilised biotinylated PEAK protein; Biacore 8K+, 20 °C; KD only an estimate (bivalent analyte model); N = 3
Procedure: PEAK proteins and adapters proteins (full length or individual domains) were biotinylated using EZ-Link™ NHS-PEG4-Biotin (Thermo Fisher) at a 1:1 molar ratio (100 µM) for 1 h at room temperature, then excess biotin was removed by buffer exchange using a Zeba™ Spin Desalting Column (Thermo Fisher) into HBS-T buffer (20 mM HEPES pH 7.4, 150 mM NaCl, 1 mM TCEP).
SPR binding studies of PEAK proteins to full length CrkII/Grb2 and sub-domains were performed using a Biacore 8K+ Instrument (Cytiva) and analyzed using Biacore Insight Evaluation Software (v. 3.0.12.15655). […] Biotinylated PEAK proteins (with or without Src phosphorylation; 500 nM in HBS-TP) were immobilized using a biotin CAPture kit (Cytiva) in HBS-TP running buffer at 20 °C. Binding studies and steady-state data analysis were performed as described for CrkII^NSH3 with the inclusion of an additional surface regeneration step (60 s injection of 1 M NaCl) between cycles. For Grb2^FL, Grb2^SH2, CrkII^SH2, CrkII^FL monomer and CrkII^FL dimer, to reduce nonspecific interactions the HBS-TP running buffer was supplemented with additional NaCl to a final concentration of 500 mM.
Binding studies for 14-3-3ɣ were undertaken in the same way in multi cycle mode (8 point, 3-fold serial dilution series, 0.46–1000 nM, 60 s contact time, 300 s dissociation).

CrkII^NSH3 = molecular target: T2, CrkII^NSH3 (Homo sapiens, UniProt P46108); assay: SPR, CrkII NSH3 binding to immobilised PEAK proteins; conditions: read-out: CrkII NSH3 SPR KD; interactor as analyte over biotinylated PEAK protein captured with biotin CAPture kit; Biacore 8K+, HBS-TP, 20 °C; steady-state fit; mean ± SD (N = 2); read-out: CrkII-SH2 SPR KD
T2 construct: CrkII^NSH3; UniProt P46108-1, residues 134–191; 8-His tag with TEV protease cleavage site (N); made in house; host or cells: E. coli C41 (DE3)
Procedure: as §1, §2

[1] = tested on: PEAK3 pY24 phosphorylation in MCF-10A cells; conditions: MCF-10A cells treated with inhibitor; cited from earlier work
CrkII^FL dimer = molecular target: T3, CrkII^FL dimer (Homo sapiens, UniProt P46108); assay: SPR, CrkII FL dimer binding to immobilised PEAK proteins; conditions: interactor as analyte over biotinylated PEAK protein (biotin CAPture); Biacore 8K+, HBS-TP with 500 mM NaCl, 20 °C; steady-state fit; mean ± SD (N = 2)
T3 construct: full length CrkII (CrkII^FL; UniProt P46108-1, residues 1–330); 8-His tag with TEV protease cleavage site (N); made in house; host or cells: E. coli C41 (DE3)
Procedure: as §1
SPR binding studies of PEAK proteins to full length CrkII/Grb2 and sub-domains were performed using a Biacore 8K+ Instrument (Cytiva) and analyzed using Biacore Insight Evaluation Software (v. 3.0.12.15655). […]

T2 sequence (P46108 134-191): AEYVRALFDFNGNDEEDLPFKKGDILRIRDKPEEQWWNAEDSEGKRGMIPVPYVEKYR
T1 sequence (P46108 6-120): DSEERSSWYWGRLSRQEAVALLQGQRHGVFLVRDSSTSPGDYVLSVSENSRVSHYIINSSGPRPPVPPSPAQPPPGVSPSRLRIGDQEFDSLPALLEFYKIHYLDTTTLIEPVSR
T3 sequence (P46108 whole entry, the tested form may be a part): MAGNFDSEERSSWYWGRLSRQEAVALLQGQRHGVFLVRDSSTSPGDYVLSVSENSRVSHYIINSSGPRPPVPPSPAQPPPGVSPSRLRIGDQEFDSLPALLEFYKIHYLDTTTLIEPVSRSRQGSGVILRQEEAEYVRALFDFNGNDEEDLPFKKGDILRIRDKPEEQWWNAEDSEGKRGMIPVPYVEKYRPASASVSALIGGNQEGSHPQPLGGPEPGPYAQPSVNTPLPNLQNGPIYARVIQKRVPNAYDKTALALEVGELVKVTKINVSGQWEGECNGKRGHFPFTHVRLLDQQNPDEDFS

| SPR KD, CrkII-SH2 (CrkII^SH2) | Kd (14-3-3ɣ) [µM] | SPR KD, 14-3-3ɣ (14-3-3ɣ) | Kd (CrkII^NSH3) [µM] | Kd (CrkII^FL dimer) [µM] | Compound | phosphorylation of PEAK3 at the TYSNL (pY24) site [1] |
| --- | --- | --- | --- | --- | --- | --- |
| No binding | < 1 | bound strongly | 3.87 |  | PEAK3-FL: full length human PEAK3 (1–473) from insect cells, S69 phosphorylated, purified as 14-3-3 complex |  |
|  |  |  |  |  | Cc1nc(Nc2ncc(C(=O)Nc3c(C)cccc3Cl)s2)cc(N2CCN(CCO)CC2)n1 [dasatanib] | blocked |
|  | < 1 |  | 6.84 | 2.18 | PEAK3-FL (+ Src phosphorylation): insect cell PEAK3 (1–473) phosphorylated with recombinant Src kinase |  |
|  |  |  |  |  | COc1cc(-c2nn(CCN3CCC(N(C)C)CC3)c3ncnc(N)c23)ccc1NC(=O)OC(C)(C)C [eCF506] | blocked |
